pIC50: −log10 of the molar value. Active and inactive are the calls of the source. The rule behind the calls is not given here.
How the values were obtained:
RAW264.7 [1] = assay: Anti-inflammatory activity in mouse RAW264.7 cells assessed as reduction in LPS-induced NO production preincubated for 30 mins followed by LPS stimulation measured after 24 hrs by Griess assay; type: functional, cell-based
RAW264.7 [2] = assay: Cytotoxicity against mouse RAW264.7 cells assessed as reduction in cell viability at 50 uM after 24 hrs by MTT assay; type: cell-based; details: raw264.7, 24 h
RAW264.7 [3] = assay: Inhibition of JNK phosphorylation in LPS-stimulated mouse RAW264.7 cells at 5 to 25 uM preincubated for 1 hr followed by LPS stimulation for 30 mins by Western blot method; type: cell-based
RAW264.7 [4] = assay: Inhibition of NF-kappaB in LPS-induced mouse RAW264.7 cells assessed as reduction in COX2 mRNA levels at 5 to 25 uM preincubated for 1 hr followed by LPS stimulation measured after 24 hrs by RT-PCR analysis; type: cell-based
[5] = biological target: Transcription factor p65 (Mus musculus) (UniProt Q04207); assay: Inhibition of NF-kappaB p65 phosphorylation in cytosol of LPS-stimulated mouse RAW264.7 cells at 5 to 25 uM preincubated for 1 hr followed by LPS stimulation for 90 mins by Western blot method; type: cell-based
[6] = biological target: T1, NF-kappa-B inhibitor alpha (Mus musculus) (UniProt Q9Z1E3); assay: Inhibition of IkappaBalpha phosphorylation in cytosol of LPS-stimulated mouse RAW264.7 cells at 5 to 25 uM preincubated for 1 hr followed by LPS stimulation for 90 mins by Western blot method; type: cell-based
T1 sequence (whole entry): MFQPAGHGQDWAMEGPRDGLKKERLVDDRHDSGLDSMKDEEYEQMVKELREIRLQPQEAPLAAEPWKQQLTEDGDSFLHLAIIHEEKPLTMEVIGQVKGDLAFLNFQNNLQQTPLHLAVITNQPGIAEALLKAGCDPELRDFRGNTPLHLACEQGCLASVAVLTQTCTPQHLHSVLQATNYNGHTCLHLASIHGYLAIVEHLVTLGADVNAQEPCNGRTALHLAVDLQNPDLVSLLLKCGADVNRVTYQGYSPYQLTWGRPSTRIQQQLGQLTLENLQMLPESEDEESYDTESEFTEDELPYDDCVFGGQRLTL

RAW264.7 [7] = assay: Inhibition of NF-kappaB in LPS-induced mouse RAW264.7 cells assessed as reduction in IL-1beta mRNA levels preincubated for 1 hr followed by LPS stimulation measured after 24 hrs by RT-PCR analysis; type: cell-based
[8] = biological target: Transcription factor p65 (Mus musculus) (UniProt Q04207); assay: Inhibition of NF-kappaB p65 phosphorylation in nucleus of LPS-stimulated mouse RAW264.7 cells at 5 to 25 uM preincubated for 1 hr followed by LPS stimulation for 90 mins by Western blot method; type: cell-based
[9] = biological target: T1, NF-kappa-B inhibitor alpha (Mus musculus); assay: Inhibition of IkappaBalpha phosphorylation in nucleus of LPS-stimulated mouse RAW264.7 cells at 5 to 25 uM preincubated for 1 hr followed by LPS stimulation for 90 mins by Western blot method; type: cell-based
RAW264.7 [10] = assay: Inhibition of NF-kappaB in LPS-induced mouse RAW264.7 cells assessed as reduction in iNOS mRNA levels preincubated for 1 hr followed by LPS stimulation measured after 24 hrs by RT-PCR analysis; type: cell-based
RAW264.7 [11] = assay: Inhibition of NF-kappaB in LPS-induced mouse RAW264.7 cells assessed as reduction in iNOS protein expression levels at 5 to 25 uM preincubated for 1 hr followed by LPS stimulation measured after 24 hrs by Western blot analysis; type: cell-based
RAW264.7 [12] = assay: Inhibition of ERK phosphorylation in LPS-stimulated mouse RAW264.7 cells at 5 to 25 uM preincubated for 1 hr followed by LPS stimulation for 30 mins by Western blot method; type: cell-based
[13] = biological target: MAP kinase p38 (Mus musculus) (UniProt P47811+O08911+Q9WUI1+Q9Z1B7); assay: Inhibition of MAPK p38 phosphorylation in LPS-stimulated mouse RAW264.7 cells at 5 to 25 uM preincubated for 1 hr followed by LPS stimulation for 30 mins by Western blot method; type: cell-based
RAW264.7 [14] = assay: Inhibition of NF-kappaB in LPS-induced mouse RAW264.7 cells assessed as reduction in COX2 protein expression levels at 5 to 25 uM preincubated for 1 hr followed by LPS stimulation measured after 24 hrs by Western blot analysis; type: cell-based
RAW264.7 [15] = assay: Inhibition of NF-kappaB in LPS-induced mouse RAW264.7 cells assessed as reduction in TNFalpha mRNA levels at 5 to 25 uM preincubated for 1 hr followed by LPS stimulation measured after 24 hrs by RT-PCR analysis; type: cell-based
[16] = biological target: Transcription factor p65 (Mus musculus) (UniProt Q04207); assay: Inhibition of NF-kappaB p65 phosphorylation in nucleus of LPS-stimulated mouse RAW264.7 cells preincubated for 1 hr followed by LPS stimulation for 90 mins by Western blot method; type: cell-based
[17] = biological target: Transcription factor p65 (Mus musculus) (UniProt Q04207); assay: Inhibition of NF-kappaB p65 phosphorylation in cytosol of LPS-stimulated mouse RAW264.7 cells preincubated for 1 hr followed by LPS stimulation for 90 mins by Western blot method; type: cell-based
[18] = biological target: T1, NF-kappa-B inhibitor alpha (Mus musculus); assay: Inhibition of IkappaBalpha phosphorylation in nucleus of LPS-stimulated mouse RAW264.7 cells preincubated for 1 hr followed by LPS stimulation for 90 mins by Western blot method; type: cell-based
[19] = biological target: T1, NF-kappa-B inhibitor alpha (Mus musculus); assay: Inhibition of IkappaBalpha phosphorylation in cytosol of LPS-stimulated mouse RAW264.7 cells preincubated for 1 hr followed by LPS stimulation for 90 mins by Western blot method; type: cell-based

Sequence of Transcription factor p65 (Mus musculus) (Q04207 whole entry): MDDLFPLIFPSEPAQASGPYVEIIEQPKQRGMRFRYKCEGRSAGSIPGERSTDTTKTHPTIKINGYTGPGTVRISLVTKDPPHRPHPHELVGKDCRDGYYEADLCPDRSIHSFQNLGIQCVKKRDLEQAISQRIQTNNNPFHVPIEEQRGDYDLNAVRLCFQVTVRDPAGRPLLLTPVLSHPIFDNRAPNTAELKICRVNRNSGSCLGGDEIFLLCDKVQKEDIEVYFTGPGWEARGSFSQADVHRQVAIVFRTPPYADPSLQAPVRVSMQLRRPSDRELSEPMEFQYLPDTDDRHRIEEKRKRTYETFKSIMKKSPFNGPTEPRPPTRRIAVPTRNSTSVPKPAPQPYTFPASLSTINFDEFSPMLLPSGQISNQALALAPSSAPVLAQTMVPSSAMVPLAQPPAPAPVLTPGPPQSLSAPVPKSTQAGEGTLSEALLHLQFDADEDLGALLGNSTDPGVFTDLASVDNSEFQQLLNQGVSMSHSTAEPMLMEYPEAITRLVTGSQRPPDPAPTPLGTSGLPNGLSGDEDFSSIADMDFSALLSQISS

Compound	pIC50 (RAW264.7 [1])	Activity (RAW264.7 [2])	also measured
CC1=C2C[C@H]3[C@](C)(C=C2OC1=O)[C@@H](O)CC[C@]3(C)O	< 4.00	Non-Toxic	
O=c1cc(-c2ccc(O)c(O)c2)oc2cc(O)cc(O)c12 [LUTEOLIN]	5.25		
CC1=C2CC3=C(C)[C@@H](O)C[C@@H](O)[C@@]3(C)C[C@@]2(O)OC1=O	< 4.00	Non-Toxic	
CC1=C2C[C@H]3[C@](C)(C=C2OC1=O)[C@H](O)CC[C@]3(C)O	< 4.00	Non-Toxic	
CC(=O)O[C@H]1C[C@@H](O)[C@@]2(C)C[C@@]3(O)OC(=O)C(C)=C3[C@H](O)[C@@H]2[C@H]1C	< 4.00	Non-Toxic	
CC1=C2C[C@@H]3[C@@H](C)[C@@H](O)C[C@@H](O)[C@@]3(C)C=C2OC1=O	< 4.00	Non-Toxic	
CC1=C2C[C@@H]3[C@@H](C)[C@@H](O)C[C@@H](O)[C@@]3(C)C[C@@]2(O)OC1=O	< 4.00	Non-Toxic	
CC(=O)O[C@@H]1C(=O)C=C(C)[C@@H]2CC3=C(C)C(=O)O[C@@]3(O)C[C@@]12C	< 4.00	Non-Toxic	
CC(=O)OC1=C[C@@](C)(O)[C@@H]2CC3=C(C)C(=O)O[C@@]3(O)C[C@@]2(C)C1=O	< 4.00	Non-Toxic	
CO[C@@]12C[C@]3(C)[C@H](O)C[C@H](O)[C@H](C)[C@H]3CC1=C(C)C(=O)O2	< 4.00	Non-Toxic	
CC1=C[C@@H](O)[C@@H](O)[C@@]2(C)C[C@@]3(O)OC(=O)C(C)=C3C[C@H]12	< 4.00	Non-Toxic	
CC1=C2C[C@@H]3[C@](C)(O)[C@@H](O)C[C@@H](O)[C@@]3(C)C=C2OC1=O	< 4.00	Non-Toxic	

Second part, led by results:

pIC50 (RAW264.7 [1])	Compound	Activity (RAW264.7 [2])	also measured
4.15	CC1=C2C[C@@H]3[C@@H](C)C(=O)C=C[C@@]3(C)C[C@H]2OC1=O	Non-Toxic	
4.51	CO[C@@]12C[C@]3(C)C=CC(=O)[C@H](C)[C@H]3CC1=C(C)C(=O)O2	Non-Toxic	inhibition (RAW264.7 [3]): inactive; inhibition (RAW264.7 [4]): inactive; inhibition [5]: inactive; inhibition [6]: inactive; inhibition (RAW264.7 [7]): Dose-dependent effect; inhibition [8]: inactive; inhibition [9]: inactive; inhibition (RAW264.7 [10]): Dose-dependent effect; inhibition (RAW264.7 [11]): Active; inhibition (RAW264.7 [12]): inactive; inhibition [13]: inactive; inhibition (RAW264.7 [14]): inactive; inhibition (RAW264.7 [15]): inactive
< 4.00	CC(=O)O[C@H]1C[C@@H](O)[C@@]2(C)C[C@@]3(O)OC(=O)C(C)=C3C[C@@H]2[C@H]1C	Non-Toxic	
< 4.00	CO[C@]12C[C@@]3(C)[C@H](OC(C)=O)C(=O)C=C(C)[C@@H]3CC1=C(C)C(=O)O2	Non-Toxic	
4.24	CC1=C2C[C@@H]3[C@@](C)(C[C@]2(O)OC1=O)C(=O)C=C[C@@]3(C)O	Non-Toxic	
4.75	CO[C@]12C[C@]3(C)C=CC(=O)[C@H](C)[C@H]3CC1=C(C)C(=O)O2	Non-Toxic	inhibition (RAW264.7 [3]): inactive; inhibition (RAW264.7 [4]): inactive; inhibition [16]: Dose-dependent effect; inhibition (RAW264.7 [7]): Dose-dependent effect; inhibition [17]: Dose-dependent effect; inhibition (RAW264.7 [10]): Dose-dependent effect; inhibition [18]: Dose-dependent effect; inhibition (RAW264.7 [11]): Active; inhibition (RAW264.7 [12]): inactive; inhibition [13]: inactive; inhibition (RAW264.7 [14]): inactive; inhibition [19]: Dose-dependent effect; inhibition (RAW264.7 [15]): inactive
4.70	CO[C@@]12C[C@]3(C)[C@H](O)C[C@H](OC(C)=O)[C@H](C)[C@H]3CC1=C(C)C(=O)O2	Non-Toxic	
4.52	CC(=O)O[C@H]1C[C@@H](O)[C@@]2(C)C=C3OC(=O)C(C)=C3C[C@@H]2[C@H]1C	Non-Toxic	
4.16	CC1=C2C[C@@H]3[C@@H](C)C(=O)C=C[C@@]3(C)C[C@@]2(O)OC1=O	Non-Toxic	

Reference: ChEMBL document CHEMBL4130460, “Anti-inflammatory Activity of Eudesmane-Type Sesquiterpenoids from Salvia plebeia” (J Nat Prod, 2017)
